{"source": "patent US11369655B2", "about": "“Healthful supplements” (priority 2015, dated 2022)", "key": {"[1]": {"biological_target": "cannabinoid receptor type 1 (CB1) (Homo sapiens, UniProt P21554)", "sequence (P21554 whole entry, species assumed)": "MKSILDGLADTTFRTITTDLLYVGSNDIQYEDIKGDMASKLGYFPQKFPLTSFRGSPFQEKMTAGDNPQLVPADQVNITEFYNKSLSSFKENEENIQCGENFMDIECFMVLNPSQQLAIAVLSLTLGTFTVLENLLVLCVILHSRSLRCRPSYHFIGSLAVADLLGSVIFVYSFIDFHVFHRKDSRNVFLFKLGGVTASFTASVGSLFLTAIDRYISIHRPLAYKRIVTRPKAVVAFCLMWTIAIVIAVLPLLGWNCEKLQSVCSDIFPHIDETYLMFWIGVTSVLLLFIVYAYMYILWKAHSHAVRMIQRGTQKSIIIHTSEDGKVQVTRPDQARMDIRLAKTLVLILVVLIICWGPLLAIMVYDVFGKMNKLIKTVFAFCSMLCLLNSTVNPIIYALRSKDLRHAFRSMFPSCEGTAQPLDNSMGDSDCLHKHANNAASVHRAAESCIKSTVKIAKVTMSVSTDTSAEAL", "conditions": "cited from earlier work"}, "[2]": {"conditions": "cited from earlier work"}, "[3]": {"conditions": "crystalline form at −20° C.; cited from earlier work"}, "[4]": {"biological_target": "peripheral cannabinoid receptor type 2 (CB2) (Homo sapiens, UniProt P34972)", "sequence (P34972 whole entry, species assumed)": "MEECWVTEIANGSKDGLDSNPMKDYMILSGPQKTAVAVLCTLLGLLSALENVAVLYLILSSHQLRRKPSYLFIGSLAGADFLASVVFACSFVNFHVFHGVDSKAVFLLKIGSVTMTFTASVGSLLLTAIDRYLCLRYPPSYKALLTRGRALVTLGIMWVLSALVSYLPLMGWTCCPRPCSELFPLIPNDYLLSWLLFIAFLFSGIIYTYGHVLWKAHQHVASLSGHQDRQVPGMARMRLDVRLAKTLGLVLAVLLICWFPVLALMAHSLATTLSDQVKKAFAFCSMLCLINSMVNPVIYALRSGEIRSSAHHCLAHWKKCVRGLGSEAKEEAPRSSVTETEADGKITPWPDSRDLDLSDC", "conditions": "cited from earlier work"}, "[5]": {"test": "Acute oral toxicity (LD50) in rats", "format": "in vivo, rat"}, "[6]": {"conditions": "cited from earlier work", "remark": "listed apart in the source"}, "[7]": {"conditions": "vapor phase, estimated, cited from earlier work"}}}
{"smiles": "CCCCCC(C)(C)c1ccc([C@H]2CCC[C@@H](O)C2)c(O)c1", "note": "(relative stereo) [cp 47,497-C6-homolog, cis-5-(1,1 dimethylhexyl)-2-(3-hydroxycyclohexyl)-phenol]", "values": [{"measurement": "affinity for CB1", "setting": "[1]", "value": "has affinity"}, {"measurement": "solubility in DMF", "setting": "[2]; DMF", "value": "approximately 10 mg/ml"}, {"measurement": "solubility in DMSO", "setting": "[2]; DMSO", "value": "~15", "unit": "mg/mL"}, {"measurement": "solubility in aqueous solutions", "setting": "[2]; aqueous solutions", "value": "sparingly soluble"}, {"measurement": "solubility in ethanol", "setting": "[2]; ethanol", "value": "approximately 10 mg/ml"}, {"measurement": "solubility in methanol", "setting": "[2]; methanol", "value": "approximately 12.5 mg/ml"}, {"measurement": "long term storage stability", "setting": "[3]", "value": "stable for at least two years"}, {"measurement": "affinity for CB2", "setting": "[4]", "value": "has affinity"}]}
{"smiles": "OCC(O)CO", "note": "[Vegetable glycerin, glycerol]", "values": [{"measurement": "LD50 oral rat dosage converted per pound", "setting": "[5]; conversion of the rat oral LD50", "value": "approximately 5.7 grams per pound of body weight"}, {"measurement": "LD50 oral rat dosage converted for a 180 pound male", "setting": "[5]; for a 180 pound male", "value": 36, "unit": "ounces"}, {"measurement": "LD50 oral rat dosage", "setting": "[6]; MSDS", "value": "12,600 milligrams per kilogram of body weight"}]}
{"smiles": "CCO", "note": "[ethyl (grain) alcohol]", "values": [{"measurement": "acute oral toxicity (LD50) in rats", "setting": "[6]; rat", "value": "about 7060 mg/kg"}]}
{"smiles": "C=CC(=C)CCC=C(C)C", "note": "[myrcene, beta-myrcene]", "values": [{"measurement": "half-life in air, reaction with nitrate radicals", "setting": "[7]; nitrate radicals", "value": 4, "unit": "min"}, {"measurement": "half-life in air, reaction with ozone", "setting": "[7]; ozone", "value": 34, "unit": "min"}, {"measurement": "half-life in air, reaction with hydroxyl radicals", "setting": "[7]; photochemically-produced hydroxyl radicals", "value": 108, "unit": "min"}]}
